Results: patent US20250154525A1, “PLANT VIRUS MOVEMENT PROTEINS AND METHODS OF USING SAME” (Molecular Transfer, Inc., priority 2016, published 2025)

These substances were tested on HuVec Cells (assay: GFP plasmid transfection with DOTMA/DOPE plus plant virus movement protein derived peptides (Example 2)). Settings: Transfection Agent 1 μl, 42 hours.
Type: cell-based
Experimental: (§1) Cells were plated to so that on the day of transfection the cells were 70% confluent in 96 well tissue culture plates. A DOMTA/DOPE Lipid solution (1:1 molar ratio) at 2 mg/mL in water were mixed with an equal volume of plant virus movement protein derived peptides that had the nucleic acid binding moiety RRRRRRRRRRRR (SEQ ID NO:109) or KKKKKKKKKKKKKKKK (SEQ ID NO: 102) covalently linked to the N-terminus, or C-terminus of each peptide during peptide synthesis. Peptides were at 2 mg/mL in water. The DOTMA/DOPE and the plant virus movement peptide solution the was diluted 1 to 1 (v/v) in water. DOMTA/DOPE/PEPTIDE solutions were added to 0.1 mL of a plasmid DNA solution (EF1Alpha eGFP plasmid) at 10 μg/mL in OptiMEM.
(§2) All solutions were at room temperature. A volume of 0.2 mL of a 10 μg/mL solution of DNA was aliquoted into each well of a non-tissue cultured treated plate. 1-6 μL of transfection reagents were added to DNA solutions respectively. The transfection reagent and DNA solution was mixed by pipetting up and down twice. Transfection complexes were formed for 10 minutes. After 10 minutes, 0.01 or 0.02 mL of the transfection complex was added to cells. HuVEC, HeLa, human adult keratinocytes, human primary adult fibroblast, and A549 cells all respectively received 0.01 mL of the transfection complex. Human skeletal muscle cells, mouse C2C12 cells, and Jurkat, cells received 0.02 mL of the transfection complex. Cells were incubated for 42 hours at 37° C. at 5% CO2. Plates were read on a fluorescent plate reader. Cells were also examined visually under a microscope to assess the extent of transfection (in terms of the percent of cells transfected) with a fluorescent microscope. Other modes of analysis, for example quantification with B-galactosidase or luciferase reports plasmids can also be used.

Q: “547 (SYVKTVPNRTRTYIKGGGGGRRRRRRRRRRRR) [compound 547]” was tested. Which “Relative Fluorescence of Transfection of HuVEC Cells” value did it give?
A: 24554 Rf

Q: With “543 (RRRRRRRRRRRRVDFSHVDYGKWERKPIRCASMSRLGLRG) [compound 543]” as the substance, how does the “Relative Fluorescence of Transfection of HuVEC Cells” value read?
A: 26622 Rf

Q: Which “Relative Fluorescence of Transfection of HuVEC Cells” value does the source give for “542 (KKKKKKKKKKKKKKKKGKWERKPIRCAS) [compound 542]” here?
A: 24827 Rf

Same assay, conditions: Transfection Agent 1.5 μl, 42 hours

Q: How did the “Relative Fluorescence of Transfection of HuVEC Cells” value turn out when “547 (SYVKTVPNRTRTYIKGGGGGRRRRRRRRRRRR) [compound 547]” was run?
A: 26172 Rf

Q: For “543 (RRRRRRRRRRRRVDFSHVDYGKWERKPIRCASMSRLGLRG) [compound 543]”, which “Relative Fluorescence of Transfection of HuVEC Cells” value is on record?
A: 36742 Rf

Q: Which “Relative Fluorescence of Transfection of HuVEC Cells” value does the source give for “542 (KKKKKKKKKKKKKKKKGKWERKPIRCAS) [compound 542]” here?
A: 33896 Rf

Same assay, conditions: Transfection Agent 2 μl, 42 hours

Q: Which “Relative Fluorescence of Transfection of HuVEC Cells” value does the source give for “547 (SYVKTVPNRTRTYIKGGGGGRRRRRRRRRRRR) [compound 547]” here?
A: 28255 Rf

Q: Which “Relative Fluorescence of Transfection of HuVEC Cells” value does the source give for “543 (RRRRRRRRRRRRVDFSHVDYGKWERKPIRCASMSRLGLRG) [compound 543]” here?
A: 42802 Rf

Q: “542 (KKKKKKKKKKKKKKKKGKWERKPIRCAS) [compound 542]” was tested. Which “Relative Fluorescence of Transfection of HuVEC Cells” value did it give?
A: 42546 Rf

Same assay, conditions: Transfection Agent 3 μl, 42 hours

Q: With “547 (SYVKTVPNRTRTYIKGGGGGRRRRRRRRRRRR) [compound 547]” as the substance, how does the “Relative Fluorescence of Transfection of HuVEC Cells” value read?
A: 32494 Rf

Q: How did the “Relative Fluorescence of Transfection of HuVEC Cells” value turn out when “543 (RRRRRRRRRRRRVDFSHVDYGKWERKPIRCASMSRLGLRG) [compound 543]” was run?
A: 40584 Rf

Q: “542 (KKKKKKKKKKKKKKKKGKWERKPIRCAS) [compound 542]” was tested. Which “Relative Fluorescence of Transfection of HuVEC Cells” value did it give?
A: 43231 Rf

Same assay, conditions: Transfection Agent 4 μl, 42 hours

Q: Which “Relative Fluorescence of Transfection of HuVEC Cells” value does the source give for “547 (SYVKTVPNRTRTYIKGGGGGRRRRRRRRRRRR) [compound 547]” here?
A: 31180 Rf

Q: How did the “Relative Fluorescence of Transfection of HuVEC Cells” value turn out when “543 (RRRRRRRRRRRRVDFSHVDYGKWERKPIRCASMSRLGLRG) [compound 543]” was run?
A: 32754 Rf

Q: For “542 (KKKKKKKKKKKKKKKKGKWERKPIRCAS) [compound 542]”, which “Relative Fluorescence of Transfection of HuVEC Cells” value is on record?
A: 35294 Rf

Same assay, conditions: Transfection Agent 6 μl, 42 hours

Q: Which “Relative Fluorescence of Transfection of HuVEC Cells” value does the source give for “547 (SYVKTVPNRTRTYIKGGGGGRRRRRRRRRRRR) [compound 547]” here?
A: 26775 Rf

Q: With “543 (RRRRRRRRRRRRVDFSHVDYGKWERKPIRCASMSRLGLRG) [compound 543]” as the substance, how does the “Relative Fluorescence of Transfection of HuVEC Cells” value read?
A: 25492 Rf

Q: For “542 (KKKKKKKKKKKKKKKKGKWERKPIRCAS) [compound 542]”, which “Relative Fluorescence of Transfection of HuVEC Cells” value is on record?
A: 29326 Rf

The substances below were run on HeLa Cells in the same assay as above. Settings: 1-6 μL of transfection reagents; 2 µL transfection reagent.
Type: cell-based
Experimental: as §1, §2

Q: For “547 (SYVKTVPNRTRTYIKGGGGGRRRRRRRRRRRR) [compound 547]”, which “Relative Fluorescence of Transfection of Hela Cells” value is on record?
A: 9491

Q: How did the “Relative Fluorescence of Transfection of Hela Cells” value turn out when “543 (RRRRRRRRRRRRVDFSHVDYGKWERKPIRCASMSRLGLRG) [compound 543]” was run?
A: 42502

Q: “542 (KKKKKKKKKKKKKKKKGKWERKPIRCAS) [compound 542]” was tested. Which “Relative Fluorescence of Transfection of Hela Cells” value did it give?
A: 32901

Same assay, conditions: 1-6 μL of transfection reagents; 5 µL transfection reagent

Q: With “547 (SYVKTVPNRTRTYIKGGGGGRRRRRRRRRRRR) [compound 547]” as the substance, how does the “Relative Fluorescence of Transfection of Hela Cells” value read?
A: 8829

Q: How did the “Relative Fluorescence of Transfection of Hela Cells” value turn out when “543 (RRRRRRRRRRRRVDFSHVDYGKWERKPIRCASMSRLGLRG) [compound 543]” was run?
A: 13793

Q: Which “Relative Fluorescence of Transfection of Hela Cells” value does the source give for “542 (KKKKKKKKKKKKKKKKGKWERKPIRCAS) [compound 542]” here?
A: 35631

Same assay, conditions: value column 1 of 6, head not given; 1-6 μL of transfection reagents; 1 µL transfection reagent

Q: How did the “Relative Fluorescence of Transfection of Hela Cells” value turn out when “547 (SYVKTVPNRTRTYIKGGGGGRRRRRRRRRRRR) [compound 547]” was run?
A: 5899

Q: “543 (RRRRRRRRRRRRVDFSHVDYGKWERKPIRCASMSRLGLRG) [compound 543]” was tested. Which “Relative Fluorescence of Transfection of Hela Cells” value did it give?
A: 12174

Q: “542 (KKKKKKKKKKKKKKKKGKWERKPIRCAS) [compound 542]” was tested. Which “Relative Fluorescence of Transfection of Hela Cells” value did it give?
A: 9010

Same assay, conditions: value column 3 of 6, head not given; 1-6 μL of transfection reagents; 3 µL transfection reagent

Q: How did the “Relative Fluorescence of Transfection of Hela Cells” value turn out when “547 (SYVKTVPNRTRTYIKGGGGGRRRRRRRRRRRR) [compound 547]” was run?
A: 10275

Q: For “543 (RRRRRRRRRRRRVDFSHVDYGKWERKPIRCASMSRLGLRG) [compound 543]”, which “Relative Fluorescence of Transfection of Hela Cells” value is on record?
A: 38779

Q: “542 (KKKKKKKKKKKKKKKKGKWERKPIRCAS) [compound 542]” was tested. Which “Relative Fluorescence of Transfection of Hela Cells” value did it give?
A: 47293

Same assay, conditions: value column 4 of 6, head not given; 1-6 μL of transfection reagents; 4 µL transfection reagent

Q: Which “Relative Fluorescence of Transfection of Hela Cells” value does the source give for “547 (SYVKTVPNRTRTYIKGGGGGRRRRRRRRRRRR) [compound 547]” here?
A: 11241

Q: For “543 (RRRRRRRRRRRRVDFSHVDYGKWERKPIRCASMSRLGLRG) [compound 543]”, which “Relative Fluorescence of Transfection of Hela Cells” value is on record?
A: 28451

Q: How did the “Relative Fluorescence of Transfection of Hela Cells” value turn out when “542 (KKKKKKKKKKKKKKKKGKWERKPIRCAS) [compound 542]” was run?
A: 42152

What follows are substances tested on Human Primary Fibroblast Cells in the same assay as above. Settings: Transfection Agent 1 μl, 42 hours.
Type: cell-based
Experimental: as §1, §2

Q: Which “Relative Fluorescence of Transfection of Human Primary Fibroblast Cells” value does the source give for “547 (SYVKTVPNRTRTYIKGGGGGRRRRRRRRRRRR) [compound 547]” here?
A: 29141 Rf

Q: With “543 (RRRRRRRRRRRRVDFSHVDYGKWERKPIRCASMSRLGLRG) [compound 543]” as the substance, how does the “Relative Fluorescence of Transfection of Human Primary Fibroblast Cells” value read?
A: 30416 Rf

Q: For “542 (KKKKKKKKKKKKKKKKGKWERKPIRCAS) [compound 542]”, which “Relative Fluorescence of Transfection of Human Primary Fibroblast Cells” value is on record?
A: 30818 Rf

Same assay, conditions: Transfection Agent 1.5 μl, 42 hours

Q: “547 (SYVKTVPNRTRTYIKGGGGGRRRRRRRRRRRR) [compound 547]” was tested. Which “Relative Fluorescence of Transfection of Human Primary Fibroblast Cells” value did it give?
A: 33704 Rf

Q: With “543 (RRRRRRRRRRRRVDFSHVDYGKWERKPIRCASMSRLGLRG) [compound 543]” as the substance, how does the “Relative Fluorescence of Transfection of Human Primary Fibroblast Cells” value read?
A: 45401 Rf

Q: How did the “Relative Fluorescence of Transfection of Human Primary Fibroblast Cells” value turn out when “542 (KKKKKKKKKKKKKKKKGKWERKPIRCAS) [compound 542]” was run?
A: 43609 Rf

Same assay, conditions: Transfection Agent 2 μl, 42 hours

Q: Which “Relative Fluorescence of Transfection of Human Primary Fibroblast Cells” value does the source give for “547 (SYVKTVPNRTRTYIKGGGGGRRRRRRRRRRRR) [compound 547]” here?
A: 35175 Rf

Q: How did the “Relative Fluorescence of Transfection of Human Primary Fibroblast Cells” value turn out when “543 (RRRRRRRRRRRRVDFSHVDYGKWERKPIRCASMSRLGLRG) [compound 543]” was run?
A: 39786 Rf

Q: For “542 (KKKKKKKKKKKKKKKKGKWERKPIRCAS) [compound 542]”, which “Relative Fluorescence of Transfection of Human Primary Fibroblast Cells” value is on record?
A: 46966 Rf

Same assay, conditions: Transfection Agent 3 μl, 42 hours

Q: How did the “Relative Fluorescence of Transfection of Human Primary Fibroblast Cells” value turn out when “547 (SYVKTVPNRTRTYIKGGGGGRRRRRRRRRRRR) [compound 547]” was run?
A: 35563 Rf

Q: How did the “Relative Fluorescence of Transfection of Human Primary Fibroblast Cells” value turn out when “543 (RRRRRRRRRRRRVDFSHVDYGKWERKPIRCASMSRLGLRG) [compound 543]” was run?
A: 33091 Rf

Q: For “542 (KKKKKKKKKKKKKKKKGKWERKPIRCAS) [compound 542]”, which “Relative Fluorescence of Transfection of Human Primary Fibroblast Cells” value is on record?
A: 36343 Rf

Same assay, conditions: Transfection Agent 4 μl, 42 hours

Q: With “547 (SYVKTVPNRTRTYIKGGGGGRRRRRRRRRRRR) [compound 547]” as the substance, how does the “Relative Fluorescence of Transfection of Human Primary Fibroblast Cells” value read?
A: 33951 Rf

Q: With “543 (RRRRRRRRRRRRVDFSHVDYGKWERKPIRCASMSRLGLRG) [compound 543]” as the substance, how does the “Relative Fluorescence of Transfection of Human Primary Fibroblast Cells” value read?
A: 28648 Rf

Q: For “542 (KKKKKKKKKKKKKKKKGKWERKPIRCAS) [compound 542]”, which “Relative Fluorescence of Transfection of Human Primary Fibroblast Cells” value is on record?
A: 33706 Rf

Same assay, conditions: Transfection Agent 6 μl, 42 hours

Q: Which “Relative Fluorescence of Transfection of Human Primary Fibroblast Cells” value does the source give for “547 (SYVKTVPNRTRTYIKGGGGGRRRRRRRRRRRR) [compound 547]” here?
A: 30539 Rf

Q: With “543 (RRRRRRRRRRRRVDFSHVDYGKWERKPIRCASMSRLGLRG) [compound 543]” as the substance, how does the “Relative Fluorescence of Transfection of Human Primary Fibroblast Cells” value read?
A: 28698 Rf

Q: For “542 (KKKKKKKKKKKKKKKKGKWERKPIRCAS) [compound 542]”, which “Relative Fluorescence of Transfection of Human Primary Fibroblast Cells” value is on record?
A: 31787 Rf
